According to patent US20250288645A1, “USE OF GsMTx4 AND GsMTx4 CONJUGATES TO IMPROVE RECOVERY FROM JOINT INJURY” (priority 2023, published 2025):

How the values were obtained:
[1] = system: humeral head chondrocytes; assay: Explanted humeral head impact loading (2 mJ) after incubation with channel agonists; format: cell-based, mouse; settings: 10 μM yoda1 or 5 nM GSK101, 15 minutes, 2 mJ load; for humeral head chondrocyte cell death following impact loading, female mice: relative to control media; for humeral head chondrocyte cell death following impact loading, male mice: relative to controls (DMSO 0.25%)
Description: Ethical approval was obtained from the appropriate institutional committee Humeri were harvested from wild-type 12-22 week old C57Bl/6 male and female mice. Each specimen was placed in calcium imaging buffer with 2 mM calcium chloride and subsequently incubated with 10 μM calcein-AM for 30 minutes at 37° C. To indicate intracellular esterase activity of living cells, each specimen was incubated with 10 μM yoda1, a Piezo1-specific agonist, 5 nM GSK101, a TRPV4-agonist, or control (DMSO 0.25%, n=7-10/group) in calcium imaging buffer for 15 minutes. Specimens were then incubated with 1.5 nM ethidium homodimer-1 for 3 minutes to indicate loss of plasma membrane integrity in dead cells. The specimen was then arranged in a custom 3-D printed holding device such that the chondrocytes within the apex of sphericity of the humeral head were facing the glass well of a dish to be imaged on an inverted confocal microscope. A baseline confocal image with overlay of 100 μm Z-stacks was obtained with 488 and 594 nm wavelengths to image live and dead cells, respectively. The humerus was then transferred to a custom impact loading apparatus. A 2 mJ load was applied to the lateral aspect of the proximal humerus, such that the convex apex of the humeral head cartilage was impacted against the glass microscope dish. A 2 mJ load was chosen based on preliminary work by Kotelsky to define mechanic-vulnerability of distal femur and proximal humerus articular chondrocytes in the custom loading apparatus. The samples were again incubated in ethidium homodimer-1. A post-injury confocal image with overlay of 100 μm Z-stacks was obtained. A custom MATLAB image processing algorithm was developed to quantify cell viability. The confocal images were processed as maximum intensity projections with threshold via Otsu's method. Then, watershed segmentation, distance transform, and centroid approximation algorithms were created and applied to segment and quantify individual cells based on intensity values. This facilitated the cell counting process, allowed quantification of the total cell area, and allowed adjustment of the region of interest between before- and after-impact micrographs.

chondrocytes = assay: Cartilage pre-treated with Yoda1: chondrocyte vulnerability to mechanical injury; format: cell-based, murine; settings: cartilage pre-treated with Yoda1, versus vehicle-treated controls in contralateral limbs

## CC(C)C[C@H](NC(=O)c1cc2ccccc2s1)C(=O)N1CCN(C(=O)[C@H](CO)NS(=O)(=O)c2ccc(Cl)cc2Cl)CC1 [Gsk101]
[1]
  humeral head chondrocyte cell death following impact loading, female mice: nor was incubation with Gsk101 chondroprotective
  humeral head chondrocyte cell death following impact loading, male mice: statistically significant decrease in humeral head chondrocyte cell death

## Clc1cccc(Cl)c1CSc1nnc(-c2cnccn2)s1 [Yoda1]
[1]
  humeral head chondrocyte cell death following impact loading, female mice: not a significant increase in chondrocyte cell death
  humeral head chondrocyte cell death following impact loading, male mice: statistically significant increase in humeral head chondrocyte cell death
chondrocytes
  chondrocyte vulnerability to mechanical injury: significantly higher chondrocyte vulnerability
